# Legend:
# [1] = molecular target: T1, 5-Lipoxygenase (Homo sapiens, UniProt P09917); assay: Inhibition of 5-Lipoxygenase in Human Whole Blood (LTB4, calcium ionophore A23187); type: cell-based; details: 1 μM
# T1 construct: endogenous in cells; host or cells: human whole blood from male donors (results expressed per 10^6 neutrophils)
# T1 sequence (P09917 1-674): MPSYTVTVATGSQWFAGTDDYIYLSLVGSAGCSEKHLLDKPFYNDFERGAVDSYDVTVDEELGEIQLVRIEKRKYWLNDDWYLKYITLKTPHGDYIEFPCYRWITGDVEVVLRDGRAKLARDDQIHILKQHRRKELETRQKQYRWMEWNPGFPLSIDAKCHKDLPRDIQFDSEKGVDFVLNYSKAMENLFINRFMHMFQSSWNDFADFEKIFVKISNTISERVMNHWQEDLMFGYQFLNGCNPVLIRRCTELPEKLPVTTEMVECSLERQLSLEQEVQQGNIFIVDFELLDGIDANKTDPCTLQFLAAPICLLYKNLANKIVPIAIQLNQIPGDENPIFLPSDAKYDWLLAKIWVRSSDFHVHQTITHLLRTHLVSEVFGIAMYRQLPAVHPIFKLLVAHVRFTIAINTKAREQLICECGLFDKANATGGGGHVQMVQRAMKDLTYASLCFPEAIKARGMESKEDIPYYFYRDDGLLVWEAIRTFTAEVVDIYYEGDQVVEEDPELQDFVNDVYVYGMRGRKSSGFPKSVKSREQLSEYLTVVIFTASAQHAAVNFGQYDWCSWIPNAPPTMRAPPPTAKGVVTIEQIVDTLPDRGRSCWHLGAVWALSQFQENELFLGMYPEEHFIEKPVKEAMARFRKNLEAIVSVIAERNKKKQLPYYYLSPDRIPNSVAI
# Experimental: 1. Inhibition of 5-Lipoxygenase in Human Whole Blood
# Blood is obtained in 50-100 ml quantities from male donors. White blood cell counts and differentials are made. Two ml of blood are placed in a 15 ml polypropylene test tube. Test compounds are solubilized in dimethylsulfoxide and diluted in 1:10 in 10% bovine serum albumin in phosphate buffered saline, pH 7.4 resulting in a final dimethylsulfoxide concentration of 0.1% in the blood. Then, solutions of test compounds are added to the blood in a shaking water bath at 37° C. for 10 minutes prior to the addition of 30 μM calcium ionophore (A23 187, Sigma). After ionophore administration, whole blood samples are mixed and incubated for 20 minutes at 37° C. in a shaking water bath. Incubation is terminated by placing samples in an ice bath and immediately adding ethylene glycol-bis-(β-aminoethyl ether)-N,N,N',N'-tetraaceticacid (10 mM). Samples are mixed and centrifuged at 1200 x g for 15 minutes at 4° C. Preparation of samples for evaluation by RIA or ELISA is carried out by the following protocol. Plasma is removed from sample tubes, placed in 15 ml polypropylene test tubes containing 8 ml methanol, and then vortexed to precipitate protein. Samples are stored at -70° C. overnight. The next day, samples are centrifuged at 200 x g for 15 minutes at 4° C. to pellet the precipitate. Samples are dried in a Savant SpeedVac Concentrator, Model SVC 200H, reconstituted to original volume with ice cold RIA or ELISA buffer, and stored at -70° C. until assayed. The assay for eicosanoids (LTB4, TxB2, and PGE2) is performed as described by the manufacturer of the [^3 H]-RIA kit or ELISA kit (LTB4 -Amersham, TxB2 and PGE2 -Caymen Chemical).
# The total eicosanoid level in 2 ml of blood is calculated and reported as ng/10^6 neutrophils. Significance is determined by a one-way analysis of variance with least significant difference (LSD) comparisons to control (p≤0.05) and IC50 's (μM) are determined by regression analysis (Finney, 1978). Drug effects are expressed as percent change from control values.
# [2] = system: LT-dependent bronchoconstriction; assay: Inhibition of Bronchoconstriction in Guinea Pigs Induced by Exogenously Administered Antigen; type: in vivo, guinea pig (male); details: Cavia porcellus, 5 min, 5 min post-antigen challenge
# Experimental: 4. Inhibition of Brochoconstriction in Guinea Pigs Induced by Exogenously Administered Antigen
# Male guinea pigs (Charles River, Wilmington, Mass.) were sensitized 3-4 weeks prior to antigen challenge by administration of 2 i.m. injections of ovalbumin, 1 into each hind limb (35 mg total). Sensitized animals (500-600 g) were fasted overnight prior to experimentation. Conscious animals were then dosed p.o. with drug or vehicle alone (0.5% Tween 80 in H2 O) at the indicated times prior to antigen challenge, or anesthetized animals were dosed i.v. with drug or vehicle alone (DMSO) 5 min prior to antigen challenge. Animals were anesthetized by urethane (2.8 g/kg i.p.). A carotid artery and jugular vein were cannulated to allow for the monitoring of blood pressure and the administration of drugs, respectively. The trachea was then cannulated and connected to a Harvard Apparatus rodent ventilator (S. Natick, Mass.). Spontaneous respiration was abolished by the administration of succinylcholine (2.5 mg/kg i.v.). The animals were then ventilated with room air at a rate of 65 breaths per min. Airway inflation pressure was measured using a Statham pressure transducer (Gould Instruments, Cleveland, Ohio) connected to the tracheal cannula via a side-arm and recorded on a Grass Instruments recorder (Quincy, Mass.). The tidal volume (approximately 10 cc/kg) was adjusted to give a baseline inflation pressure of 8-10 cm H2 O at end inspiration. Animals were then allowed 20 min to stabilize.
# Following the stabilization period, animals were given i.v. injections of pyrilamine (5 mg/kg), propranolol (0.1 mg/kg) and indomethacin (10 mg/kg) at 15, 10 and 5 min, respectively, prior to antigen challenge. This pretreatment results in an LT-dependent bronchoconstriction following antigen challenge, which was accomplished by i.v. administration of ovalbumin (10 mg/kg). Only one bronchoconstriction per animal was induced. End-inspiratory inflation pressure (in cm H2 O over baseline) was measured at 5 min post-antigen challenge. A mean value and standard error for the % inhibition of control bronchoconstriction in each drug-treated group was then calculated.
# [3] = system: Lipoxygenase; assay: Ex-Vivo Measurement of Lipoxygenase Inhibition in Orally Dosed Rats (LTB4); set-up: species or system rat (male Sprague Dawley); details: p.o., pretreatment period 6 hr
# Experimental: 2. Ex-Vivo Measurement of Lipoxygenase Inhibition in Orally Dosed Rats
# Male Sprague Dawley rats (Charles River) weighing between 180 g and 200 g were dosed orally with an invention compound (1-25 mg/kg, po) suspended in 0.5% Tween 80®. After an interval of 3 or 6 hours, the rats were anesthetized with metofane (n=4/group) and blood collected in heparinized tubes. White blood cell counts and differentials were made. One ml of blood from each animal was placed in a 5 ml plastic tube in a shaker bath at 37° C. A23187 at a final concentration of 10 μM was added to the blood and the blood vortexed and incubated for 15 min at […] with gentle shaking. Incubation was terminated by vortexing sample and centrifuging immediately at 1200 xG for 15 min at 4° C. The plasma was transferred to 15 ml plastic tubes each containing 8 ml of methanol to precipitate protein followed by vortexing. The samples were stored at -70 ° C. overnight and the next day the samples were centrifuged at 800 xG for 15 min to pellet the precipitate. The samples were dried in a Savant SpeedVac Concentrator Model SVC 200H and reconstituted to the original volume with cold RIA or ELISA buffer. The reconstituted samples were stored at -70° C. until assayed. The assay for LTB4 was performed according to the directions of the [^3 H]RIA kit or ELISA kit (Seragen). The total metabolite level in 1 ml of blood is calculated and reported as ng/10^6 neutrophils. Significance is determined by a one-way analysis of variance with LSD comparisons to control (p≤0.05).
# [4] = system: LDL; details: cell mediated and Cu^+2 mediated; cited from earlier work
# [5] = system: atherosclerotic lesions; details: WHHL rabbits; cited from earlier work
# [6] = system: LTB4 Synthesis; assay: Reverse Passive Arthus Reaction (pleurisy), LTB4 in pleural exudate; type: in vivo, rat (male Lewis); details: 10 mg/kg, p.o.
# Experimental: 3. Reverse Passive Arthus Reaction
# A reverse passive Arthus reaction is induced in the pleural cavity of male Lewis rats (150-200 g; fasted overnight prior to use) by the intravenous administration of bovine serum albumin (BSA; 4 mg/0.2 ml) followed 30 minutes later by the injection of rabbit anti-BSA (1 mg/0.2 ml; lyophilized IgG fraction; Organon Teknika, West Chester, Pa.) into the right pleural space under halothane anesthesia. Drugs or vehicle (0.5% Tween-80) control are administered orally in a volume of 1 ml/100 g body weight at 1 hour prior to the anti-BSA. Animals are sacrificed at either the time of peak eicosanoid production (i.e. 5 minutes after anti-BSA for immunoreactive TxB2, 10 minutes for immunoreactive LTB4, 20 minutes for immunoreactive LTC4) or at the time of peak neutrophil infiltration (4 hours after anti-BSA) by CO2 inhalation. The pleural cavity is then exposed., the fluid exudate removed by gentle vacuum aspiration and the volume of exudate is recorded. For the determination of cellular infiltration, the pleural cavity is rinsed with 3 ml of 0.1% EDTA in sterile saline, and the recovered wash is pooled with the exudate. Cell number is determined on a model ZBI Coulter counter. For determination of eicosanoid production, undiluted pleural exudate is microfuged and the supernatant is extracted with ethanol (8-10 times volume). Extracts are either stored at -20° C., or are evaporated to dryness under a stream of N2 and reconstituted in radioimmunoassay (RIA) buffer.
# Eicosanoids are quantitated by RIA according to the procedure specified by the RIA kit manufacturer (Advanced Magnetics, Cambridge, Mass.). Briefly, 100 μl of ^3 H-labeled eicosanoid and 100 μl of specific antibody are sequentially added to 100 μl of extracted pleural exudate in BGG-phosphate buffer which contains 0.01M phosphate, 0.1% bovine gamma globulin and 0.1% sodium azide at pH 7.0. Antibody-bound eicosanoid is separated from unbound eicosanoid by the addition of 750 μl of dextran (0.4%)-coated charcoal (Norit A) containing 0.1% sodium azide. The mixture is centrifuged at 2000 RPM at 5° C. for 15 minutes to pellet the charcoal and adsorbed unbound eicosanoid. Antibody-bound labeled eicosanoid is quantitated by counting in a liquid scintillation counter, and is correlated to concentration by a standard curve.
Compound,inhibition at 1 µM [1],"inhibition in vivo at 10 mg/kg ([2]; iv, 10 mg/kg i.v.)","inhibition in vivo at 25 mg/kg ([2]; po, 25 mg/kg p.o.)",% Inhibition of LTB4 ([3]; 10 mg/kg),inhibition of oxidative modification of LDL [4],inhibition of formation of atherosclerotic lesions [5],% Inhibition LTB4 Synthesis [6],% Inhibition of LTB4 ([3]; 5 mg/kg)
"NC(=O)N(O)Cc1cccc(OCc2coc(-c3ccc(F)cc3)n2)c1 [Example 3, 1-[3-[2-(4-fluoro-phenyl)-oxazol-4-ylmethoxy]-benzyl]-1-hydroxy-urea]",74%,84%,26%,85%,–,–,–,–
CC(C)(Sc1cc(C(C)(C)C)c(O)c(C(C)(C)C)c1)Sc1cc(C(C)(C)C)c(O)c(C(C)(C)C)c1 [Probucol],–,–,–,–,inhibits both cell mediated and Cu^+2 mediated oxidative modification of LDL,inhibit the formation of atherosclerotic lesions in WHHL rabbits,–,–
"Cc1oc(-c2ccc(C(F)(F)F)cc2)nc1COc1cccc(CN(O)C(N)=O)c1 [Example 2, 1-Hydroxy-1-[3-[5-methyl-2-(4-trifluoromethyl-phenyl)-oxazol-4-ylmethoxy]-benzyl]-urea]",48%,–,–,–,–,–,59%,45%
